{"source": "patent US9408891B2", "about": "“Methods of using gelsolin to treat or prevent bacterial sepsis” (priority 2003, dated 2016)", "key": {"[1]": {"target": "T1, gelsolin activity in whole human serum (Homo sapiens, UniProt P06396)", "T1 construct": "from tissue; host or cells: whole human serum (2.5 µl)", "T1 sequence (P06396 28-782)": "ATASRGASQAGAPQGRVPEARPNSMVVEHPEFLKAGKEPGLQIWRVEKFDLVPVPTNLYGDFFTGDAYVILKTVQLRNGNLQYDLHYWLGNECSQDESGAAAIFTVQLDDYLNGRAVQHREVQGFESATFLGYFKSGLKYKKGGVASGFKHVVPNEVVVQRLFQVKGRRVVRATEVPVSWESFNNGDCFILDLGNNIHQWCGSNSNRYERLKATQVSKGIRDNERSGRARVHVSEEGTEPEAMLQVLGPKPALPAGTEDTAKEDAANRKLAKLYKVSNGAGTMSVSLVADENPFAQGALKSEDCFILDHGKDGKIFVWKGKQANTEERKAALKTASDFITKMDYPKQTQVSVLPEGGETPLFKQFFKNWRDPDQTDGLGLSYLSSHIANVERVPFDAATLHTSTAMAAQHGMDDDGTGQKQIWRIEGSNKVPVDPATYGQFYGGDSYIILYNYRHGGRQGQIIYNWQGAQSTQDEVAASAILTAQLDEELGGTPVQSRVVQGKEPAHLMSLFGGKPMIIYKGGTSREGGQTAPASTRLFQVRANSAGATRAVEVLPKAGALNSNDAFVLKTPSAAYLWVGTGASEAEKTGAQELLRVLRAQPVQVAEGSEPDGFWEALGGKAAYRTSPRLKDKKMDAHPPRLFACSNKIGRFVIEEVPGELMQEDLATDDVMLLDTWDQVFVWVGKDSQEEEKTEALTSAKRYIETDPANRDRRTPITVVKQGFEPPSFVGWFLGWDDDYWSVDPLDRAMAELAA", "test": "Actin filament severing activity of whole human serum", "format": "biochemical", "conditions": "larger amounts needed than with pure gelsolin", "experimental": "As shown, recombinant human gelsolin (rhGLS) (FIG. 4A) and blood serum (FIG. 4B) severing activity was measured in 0.4 μM pyrene-labeled F-actin samples (polymerized with 50% pyrene-labeled G-actin), after adding gelsolin (16 nM)/serum (2.5 μl), or their combination with one of the following: LPS (from different species), PIP2 (phosphatidyl-inositol-4,5-bisphosphate), LPA (lysophosphatidic acid), lipid A (the LPS derivative lacking polysaccharide) or PS (phosphatidylserine). The fluorescence intensity of F-pyrene actin was then monitored for 10 minutes, and the severing activity was calculated based on decreasing fluorescence. Severing activity was determined from a decrease in rate of fluorescence during depolymerization, and the depolymerization rate was calculated from the slope of the early decrease in fluorescence."}, "[2]": {"target": "T2, Gc-globulin (vitamin D-binding protein) (Homo sapiens, UniProt P02774)", "T2 sequence (P02774 17-474)": "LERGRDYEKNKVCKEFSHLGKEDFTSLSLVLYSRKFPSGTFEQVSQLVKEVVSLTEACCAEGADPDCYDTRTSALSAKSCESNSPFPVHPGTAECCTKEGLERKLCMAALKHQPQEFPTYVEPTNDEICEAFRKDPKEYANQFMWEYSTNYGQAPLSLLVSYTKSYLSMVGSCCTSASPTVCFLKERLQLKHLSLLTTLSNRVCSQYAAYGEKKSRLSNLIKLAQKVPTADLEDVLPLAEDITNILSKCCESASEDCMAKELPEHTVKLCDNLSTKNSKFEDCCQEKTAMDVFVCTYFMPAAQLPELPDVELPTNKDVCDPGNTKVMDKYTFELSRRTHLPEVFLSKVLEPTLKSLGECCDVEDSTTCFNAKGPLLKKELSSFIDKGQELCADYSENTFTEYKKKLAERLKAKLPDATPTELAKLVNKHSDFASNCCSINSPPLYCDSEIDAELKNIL", "test": "Actin-sequestering activity of Gc-globulin", "format": "biochemical", "conditions": "LPS at least up to 100 μM"}, "[3]": {"test": "Neutron scattering of LPS with gelsolin peptide", "format": "physicochemical", "conditions": "preliminary neutron scattering, cylindrical structure", "source_text": "The molecular structure of LPS and its complexes with proteins can be measured at nm resolution by X-ray and neutron scattering, as well as by electron and atomic force microscopy.\nAt present, the calculated diameter (36 nm) is greater than that which has been previously reported for pure LPS micelles, and the difference in size may reflect another structural feature. In additional experiments with more variations in gelsolin/LPS or peptide, LPS ratios will reveal if there are significant changes in LPS particle structure when these peptides bind LPS."}, "[4]": {"target": "T3, recombinant human gelsolin (rhGLS) (Homo sapiens, UniProt P06396)", "T3 construct": "purchased Biogen IDEC, Inc., Cambridge, Mass; host or cells: E. coli", "T3 sequence (P06396 28-782)": "as the sequence (P06396 28-782) above", "test": "Change of gelsolin OD at 280 nm after adding lipids", "format": "binding", "conditions": "OD 280 nm", "experimental": "Therefore, to determine changes of gelsolin OD at 280 nm, different amounts of LPS, LPA and PS were added to recombinant human gelsolin (rhGLS) solutions and OD emission spectra were recorded using spectrophotometer Genesys 6 (Thermo-Spectronic, USA)."}, "[5]": {"tested_on": "human aortic endothelial cells (HAEC)", "test": "LPS-induced actin cytoskeleton disassembly, phalloidin staining, endothelial cells", "format": "cell-based", "conditions": "LPS 10 μg/ml, 10 min", "source_text": "In light of the findings in the previous Examples, and using the materials prepared in above, the effect of the gelsolin binding by LPS was studied to determine the effect on cellular responses in vitro. Cell cultures of human aortic endothelial cells (HAEC) and rat primary astrocytes were used to evaluate the effect of LPS on actin. Both of these cell types have mCD14 (membrane bound C14) and TLR LPS receptors (Faure, et al., J. Biol. Chem. 275:11058-11063 (2000); Bsibsi, et al., J. Neuropathol. Exp. Neurol. 61:1013-1021 (2002); Bowman, et al., Glia 43:281-291 (2003)).\nHAECs (primary human aortic endothelial cells) (ATCC, Rockville, Md. or Clonetics, San Diego, Calif.), will grow to confluence through passages 5-9 in endothelial cell growth medium supplemented with 2% fetal bovine serum, 10 μg/liter human recombinant epidermal growth factor, 1 mg/liter hydrocortisone, 50 μg/ml gentamicin, 50 ng/ml amphotericin-B, in a 37° C. humidified atmosphere of 95% air:5% C02.\nHAECs and astrocytes cultures were incubated for 10 minutes in medium containing 10 μg/ml LPS alone, or LPS that had been pre-incubated with 0.16 mg/ml of human gelsolin. […] Location of transcription factor nuclear factor-kappaB (NF-κB) was observed using a monoclonal antibody to NF-κB (Molecular Probes), and cell nuclei were detected by counter-staining with 4′, 6-diamidino-2-phenylindole dihydrochloride (DAPI) (Sigma)."}, "[6]": {"tested_on": "NF-κB translocation in rat primary astrocytes", "test": "NF-κB translocation to the nucleus in astrocytes", "format": "cell-based", "conditions": "astrocytes, 2 hour; LPS 2 μM or TNF-α 10 ng/ml", "experimental": "Rat primary astrocytes were obtained from prenatal rats and maintained for 14 days in culture before use. Embryos (E17-E19) were removed by caesarian section from a Sprague-Dawley rat and the hippocampi were surgically removed. The tissue was digested in trypsin/DNAse at 37° C., centrifuged (1000×5 min) and filtered to derive suspensions from each pup. Cells were grown in an incubator at 37° C. and 5% CO2 in DMEM (Dulbecco's Modified Eagle's Medium; BioWhittaker/Cambrex BioScience, East Rutherford, N.J.), supplemented with Ham's F12 (Sigma-Aldrich, St. Louis, Mo.) and 5% fetal bovine serum (FBS) (Hyclone, Logan, Utah) for 7 days, followed by an additional 7 days in Neurobasal medium (Gibco, Grand Island, N.Y.) also supplemented with 5% FBS, 2 mM l-glutamine, 50 μg/ml streptomycin and 50 U/ml penicillin. In each experiment, the medium was changed to serum-free at 6-12 hours prior to addition of LPS, TNF-α, or gelsolin.\nHAECs and astrocytes cultures were incubated for 10 minutes in medium containing 10 μg/ml LPS alone, or LPS that had been pre-incubated with 0.16 mg/ml of human gelsolin. Cultures were fixed with ice-cold methanol and immunostained for F-actin with fluorescein isothiocyanate (FITC)-labeled phalloidin (Molecular Probes, Eugene, Oreg.). In astrocyte cultures, NF-κB translocation was manipulated by a 2 hour incubation in serum-free medium containing one of the following: 10 ng/ml TNF-α, 10 μg/ml LPS alone, or LPS that had been preincubated with 0.16 mg/ml human gelsolin. Location of transcription factor nuclear factor-kappaB (NF-κB) was observed using a monoclonal antibody to NF-κB (Molecular Probes), and cell nuclei were detected by counter-staining with 4′, 6-diamidino-2-phenylindole dihydrochloride (DAPI) (Sigma)."}}, "note": "Entries after “also recorded” stand apart in the source; their conditions may differ.", "data": [{"substance": "lipopolysaccharide [LPS]", "values": [{"measurement": "inhibition of gelsolin activity in whole human serum", "setting": "[1]", "value": "able to inhibit gelsolin activity; also recorded: inhibitory efficiency varies with the bacterial species"}, {"measurement": "effect on actin-sequestering activity of Gc-globulin", "setting": "[2]", "value": "unaffected"}, {"measurement": "calculated diameter", "setting": "[3]", "value": 36, "unit": "nm"}, {"measurement": "maximal decrease in UV absorbance of intact gelsolin", "setting": "[4]", "value": "~35", "unit": "%"}, {"measurement": "effect of LPS alone on actin cytoskeleton", "setting": "[5]", "value": "rapidly induced the disassembly of the actin cytoskeleton; also recorded: disassembly of the actin cytoskeleton was readily induced; also recorded: rapidly induced disassembly of the actin cytoskeleton"}, {"measurement": "induction of NF-κB translocation to the nucleus", "setting": "[6]", "value": "caused NF-κB translocation to the nucleoplasm; also recorded: resulted in its translocation to the nucleoplasm"}]}]}
